Molecules are shown by their SMILES. pIC50: −log10 of the molar value. Where two headings read alike, the source gives them in different places. Some results are limits rather than exact numbers.

In general, pIC50 refers to the negative decadic logarithm of the IC50, by convention in mol/L. As usually defined, the IC50 is the point on the concentration scale where inhibition reaches its midpoint.

This test has as its system CsgA gene expression (csgBAC promoter-GFP reporter) in E. coli UTI89. The test can be described thus: In vitro live cell fluorescent reporter assay of CsgA transcription (Reporter Assay). The note with it: for IC50: read-out: Reporter Assay Abs IC50 (μM), median Abs IC50 in the CsgA reporter assay. In kind it is cell-based. An outline of the steps:
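Chromosomal single-copy csgBAC promoter–GFP reporter in E. coli UTI89, started at OD600 0.003 in YESCA broth with compound (0.14–100 μM, 1% DMSO), 20 h at 27 °C. GFP (ex 485/em 525 nm) background-subtracted and normalized to vehicle; IC50 and X[50] from curve fits. OD600 tracked growth effects.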

Setting [1] is: Escherichia coli, read-out: Reporter Assay Abs IC50 (activity range), median Abs IC50 in the CsgA reporter assay, class symbol.
[2] abbreviates: Escherichia coli, N/A = maximum expression reduction is <50% of control.
The mark [3] stands for this setting: Escherichia coli, read-out: Reporter Assay Abs IC50, activity range, class symbol.
[4] abbreviates: read-out: Reporter Assay Abs IC50 (activity range), median Abs IC50 in the CsgA reporter assay, class symbol.
Where [5] appears, read: read-out: Reporter Assay Abs IC50, median Abs IC50 in the CsgA reporter assay, N/A = maximum expression reduction is <50% of control.

Regarding `Cn1c(=O)c2c(nc(CCCCN3CC(C(=O)O)n4c(c(-c5cccc(C(F)(F)F)c5)c(Cc5cccc6ccccc56)cc4=O)S3(=O)=O)n2C)n(C)c1=O` (stereo not drawn) [Compound 044, 8-(naphthalen-1-ylmethyl)-6-oxo-9-(3-(trifluoromethyl)phenyl)-2-(4-(1,3,7-trimethyl-2,6-dioxo-2,3,6,7-tetrahydro-1H-purin-8-yl)butyl)-3,4-dihydro-2H,6H-pyrido[1,2-e][1,2,5]thiadiazine-4-carboxylic acid 1,1-dioxide], the pIC50 under setting [1] is 5.35 to 5.89. The IC50 under setting [2] came out at 1.5 µM.

As to `CCc1c(Cc2cccc3ccccc23)c(-c2cccc(C(F)(F)F)c2)c2n(c1=O)C(C(=O)O)CN2Cc1ccc(OC)cc1` (stereo not drawn) [Compound 161, 6-ethyl-1-(4-methoxybenzyl)-7-(naphthalen-1-ylmethyl)-5-oxo-8-(3-(trifluoromethyl)phenyl)-1,2,3,5-tetrahydroimidazo[1,2-a]pyridine-3-carboxylic acid], the IC50 under setting [2] was found to be 2.1 µM. The pIC50 under setting [3] is 5.35 to 5.89.

`O=C(O)C1CN(CCC2CCCCC2)c2c(-c3cccc(C(F)(F)F)c3)c(Cc3cccc4ccccc34)c(Cl)c(=O)n21` (stereo not drawn) [Compound 207, 6-chloro-1-(2-cyclohexylethyl)-7-(naphthalen-1-ylmethyl)-5-oxo-8-(3-(trifluoromethyl)phenyl)-1,2,3,5-tetrahydroimidazo[1,2-a]pyridine-3-carboxylic acid]: the IC50 under setting [2] was 0.7 µM. Under setting [3], the pIC50 was more than 5.89.

Consider `CCCNC(=O)c1c(Cc2cccc3ccccc23)c(-c2cccc(C(F)(F)F)c2)c2n(c1=O)C(C(=O)O)CN(C)S2(=O)=O` (stereo not drawn) [Compound 154, 2-methyl-8-(naphthalen-1-ylmethyl)-6-oxo-7-(propylcarbamoyl)-9-(3-(trifluoromethyl)phenyl)-3,4-dihydro-2H,6H-pyrido[1,2-e][1,2,5]thiadiazine-4-carboxylic acid 1,1-dioxide], for which the 50% inhibitory concentration (IC50) under setting [2] was 6.1 µM. Moreover, the pIC50 under setting [3] was 5.00 to 5.34.

For the molecule `CNC(=O)CCCCN1CC(C(=O)O)n2c(c(-c3cccc(C(F)(F)F)c3)c(Cc3cccc4ccccc34)cc2=O)S1(=O)=O` (stereo not drawn) [Compound 038, 2-(5-(methylamino)-5-oxopentyl)-8-(naphthalen-1-ylmethyl)-6-oxo-9-(3-(trifluoromethyl)phenyl)-3,4-dihydro-2H,6H-pyrido[1,2-e][1,2,5]thiadiazine-4-carboxylic acid 1,1-dioxide], under setting [1], the pIC50 is less than 5.00. For the same molecule, under setting [2], the IC50 stood at 24 µM.

As to `CC1(C)Sc2c(-c3cccc(C(F)(F)F)c3)c(Cc3cccc4ccccc34)nc(=O)n2C1C(=O)O` (stereo not drawn) [Compound 059, 2,2-dimethyl-7-(naphthalen-1-ylmethyl)-5-oxo-8-(3-(trifluoromethyl)phenyl)-2,3-dihydro-5H-thiazolo[3,2-c]pyrimidine-3-carboxylic acid], the pIC50 under setting [1] was less than 5.00. Further, under setting [2], the IC50 is 21.1 µM.

Take `Nc1c(Cc2cccc3ccccc23)c(-c2cccc(C(F)(F)F)c2)c2n(c1=O)C(C(=O)O)CS2` (single isomer, unassigned) [Compound 020b, 6-amino-7-(naphthalen-1-ylmethyl)-5-oxo-8-(3-(trifluoromethyl)phenyl)-2,3-dihydro-5H-thiazolo[3,2-a]pyridine-3-carboxylic acid]: the pIC50 was 5.00 to 5.34 under setting [4] and 5.24 under setting [5].

Turning to `O=C(O)C1CN(C[C@@H](O)CO)S(=O)(=O)c2c(-c3cccc(C(F)(F)F)c3)c(Cc3cccc4ccccc34)cc(=O)n21` (mixture of isomers) [Compound 065b, 2-((R)-2,3-dihydroxypropyl)-8-(naphthalen-1-ylmethyl)-6-oxo-9-(3-(trifluoromethyl)phenyl)-3,4-dihydro-2H,6H-pyrido[1,2-e][1,2,5]thiadiazine-4-carboxylic acid 1,1-dioxide], the pIC50 under setting [1] is less than 5.00. Besides, the IC50 under setting [2] stood at 18.1 µM.

Regarding `CCCN1CC(C(=O)O)n2c(c(-c3cccc(C(F)(F)F)c3)c(Cc3cccc4ccccc34)cc2=O)S1(=O)=O` (single isomer, unassigned) [Compound 016b, 8-(naphthalen-1-ylmethyl)-6-oxo-2-propyl-9-(3-(trifluoromethyl)phenyl)-3,4-dihydro-2H,6H-pyrido[1,2-e][1,2,5]thiadiazine-4-carboxylic acid 1,1-dioxide], the pIC50 reads like this: under setting [4], 5.00 to 5.34; under setting [5], 5.18.

As to `O=C(O)[C@@H]1CN(Cc2ccccc2)c2c(-c3cccc(C(F)(F)F)c3)c(Cc3cccc4ccccc34)c(Cl)c(=O)n21` (single isomer, unassigned) [Compound 004a], the IC50 under setting [2] was 0.2 µM. The pIC50 under setting [3] was more than 5.89.

With `O=C(O)C1CN(Cc2cccnc2)c2c(-c3cccc(C(F)(F)F)c3)c(Cc3cccc4ccccc34)c(Cl)c(=O)n21` (stereo not drawn) [Compound 169, 6-chloro-7-(naphthalen-1-ylmethyl)-5-oxo-1-(pyridin-3-ylmethyl)-8-(3-(trifluoromethyl)phenyl)-1,2,3,5-tetrahydroimidazo[1,2-a]pyridine-3-carboxylic acid], under setting [2], the IC50 worked out at 3.8 µM. Under setting [3], the pIC50 was 5.35 to 5.89.

As for `O=C(O)C1CN(CC2CCOCC2)c2c(-c3cccc(C(F)(F)F)c3)c(Cc3cccc4ccccc34)c(Cl)c(=O)n21` (stereo not drawn) [Compound 182, 6-chloro-7-(naphthalen-1-ylmethyl)-5-oxo-1-((tetrahydro-2H-pyran-4-yl)methyl)-8-(3-(trifluoromethyl)phenyl)-1,2,3,5-tetrahydroimidazo[1,2-a]pyridine-3-carboxylic acid], under setting [2], the IC50 was determined as 2.5 µM. Moreover, under setting [3], the pIC50 was 5.35 to 5.89.

Turning to `O=C(O)C1CN(CCCO)c2c(-c3cccc(C(F)(F)F)c3)c(Cc3cccc4ccccc34)c(Cl)c(=O)n21` (stereo not drawn) [Compound 197, 6-chloro-1-(3-hydroxypropyl)-7-(naphthalen-1-ylmethyl)-5-oxo-8-(3-(trifluoromethyl)phenyl)-1,2,3,5-tetrahydroimidazo[1,2-a]pyridine-3-carboxylic acid], the IC50 under setting [2] was determined as 19.3 µM. Also, under setting [3], the pIC50 was less than 5.00.

Take `O=C(O)C1CN(CC2CCCCC2)c2c(-c3cccc(C(F)(F)F)c3)c(Cc3cccc4ccccc34)c(Cl)c(=O)n21` (stereo not drawn) [Compound 180, 6-chloro-1-(cyclohexylmethyl)-7-(naphthalen-1-ylmethyl)-5-oxo-8-(3-(trifluoromethyl)phenyl)-1,2,3,5-tetrahydroimidazo[1,2-a]pyridine-3-carboxylic acid]: the IC50 under setting [2] worked out at 0.5 µM. The pIC50 under setting [3] was more than 5.89.

As for `CCCCN1CC(C(=O)O)n2c(c(-c3cccc(C(F)(F)F)c3)c(Cc3cccc4ccccc34)c(C(N)=O)c2=O)S1(=O)=O` (stereo not drawn) [Compound 177, 2-butyl-7-carbamoyl-8-(naphthalen-1-ylmethyl)-6-oxo-9-(3-(trifluoromethyl)phenyl)-3,4-dihydro-2H,6H-pyrido[1,2-e][1,2,5]thiadiazine-4-carboxylic acid 1,1-dioxide], the IC50 under setting [2] stood at 1.3 µM. Under setting [3], the pIC50 is 5.35 to 5.89.

`NC(=O)c1c(Cc2cccc3ccccc23)c(-c2cccc(C(F)(F)F)c2)c2n(c1=O)C(C(=O)O)CN(C1CCCC1)S2(=O)=O` (stereo not drawn) [Compound 176, 7-carbamoyl-2-cyclopentyl-8-(naphthalen-1-ylmethyl)-6-oxo-9-(3-(trifluoromethyl)phenyl)-3,4-dihydro-2H,6H-pyrido[1,2-e][1,2,5]thiadiazine-4-carboxylic acid 1,1-dioxide]: the IC50 under setting [2] was determined as 1.3 µM. In addition, the pIC50 under setting [3] was 5.35 to 5.89.

Turning to `N#Cc1cccc(CN2CC(C(=O)O)n3c2c(-c2cccc(C(F)(F)F)c2)c(Cc2cccc4ccccc24)c(Cl)c3=O)c1` (stereo not drawn) [Compound 168, 6-chloro-1-(3-cyanobenzyl)-7-(naphthalen-1-ylmethyl)-5-oxo-8-(3-(trifluoromethyl)phenyl)-1,2,3,5-tetrahydroimidazo[1,2-a]pyridine-3-carboxylic acid], the IC50 under setting [2] came to 1.3 µM. The pIC50 under setting [3] is 5.35 to 5.89.

`CCCCCN1CC(C(=O)O)n2c(c(-c3cccc(C(F)(F)F)c3)c(Cc3cccc4ccccc34)cc2=O)S1(=O)=O` (single isomer, unassigned) [Compound 025a, 8-(naphthalen-1-ylmethyl)-6-oxo-2-pentyl-9-(3-(trifluoromethyl)phenyl)-3,4-dihydro-2H,6H-pyrido[1,2-e][1,2,5]thiadiazine-4-carboxylic acid 1,1-dioxide]: under setting [1], the pIC50 is 5.35 to 5.89. The IC50 under setting [2] was found to be 2 µM.

In the case of `O=C(O)C1CN(C[C@H](O)CO)S(=O)(=O)c2c(-c3cccc(C(F)(F)F)c3)c(Cc3cccc4ccccc34)cc(=O)n21` (stereo partly drawn) [Compound 065a, 2-((S)-2,3-dihydroxypropyl)-8-(naphthalen-1-ylmethyl)-6-oxo-9-(3-(trifluoromethyl)phenyl)-3,4-dihydro-2H,6H-pyrido[1,2-e][1,2,5]thiadiazine-4-carboxylic acid 1,1-dioxide], the pIC50 under setting [1] was less than 5.00. In addition, under setting [2], the IC50 was 24.5 µM.

With `CCCCN1CC(C(=O)O)n2c1c(-c1cccc(C(F)(F)F)c1)c(Cc1cccc3ccccc13)c(Cl)c2=O` (stereo not drawn) [Compound 163, 1-butyl-6-chloro-7-(naphthalen-1-ylmethyl)-5-oxo-8-(3-(trifluoromethyl)phenyl)-1,2,3,5-tetrahydroimidazo[1,2-a]pyridine-3-carboxylic acid], the IC50 under setting [2] stood at 1.2 µM. Besides, the pIC50 under setting [3] was more than 5.89.

As for `CN(C)C(=O)c1c(Cc2cccc3ccccc23)c(-c2cccc(C(F)(F)F)c2)c2n(c1=O)C(C(=O)O)CN(C)S2(=O)=O` (stereo not drawn) [Compound 173, 7-(dimethylcarbamoyl)-2-methyl-8-(naphthalen-1-ylmethyl)-6-oxo-9-(3-(trifluoromethyl)phenyl)-3,4-dihydro-2H,6H-pyrido[1,2-e] [1,2,5] thiadiazine-4-carboxylic acid 1,1-dioxide], under setting [2], the IC50 stood at 6.7 µM. Also, the pIC50 under setting [3] was 5.00 to 5.34.
